Experimental data reported in article PMC10108347, “Heterobifunctional Ligase Recruiters Enable pan-Degradation of Inhibitor of Apoptosis Proteins” (Journal of Medicinal Chemistry, 2023).
*1 amine or outer side, *2 acyl side, *3 side chain or, on linkers, in order; H or OH if unused. Where a SMILES comes first, the peptide text is derived from it. Bridges are numbered along the chain shown (N, C = ends). Roman numbers before positions name the chains, in order. [ ]: non-standard residue; d: D form. Hexamethylenediamine = C(CCCN[*:2])CCN[*:1]; dDip = N[C@@H](C(=O)O)C(c1ccccc1)c1ccccc1; Chg = N[C@H](C(=O)O)C1CCCCC1; dNMeA = CN[C@H](C)C(=O)O

Key:
[1] = tested on: IAPs (cIAP1, cIAP2, XIAP); assay: Immunoblotting of IAPs in MM.1S cells, overall degradation profile, time course and washout; type: cell-based; details: 16 h, western blot, concentration (10 nM to 1 μM)
Method: Next, we examined the persistence of IAP degradation in MM.1S cells after a single exposure to 1 μM of 9 and subsequent removal of the compound. […] The reliance on CRL2^VHL was assessed with a neddylation inhibitor MLN4924, which blocks the activity of CRLs (Figure S13A).

XIAP [2] = biological target: T1, XIAP (Homo sapiens, UniProt P98170); assay: Immunoblotting (western blot) quantification of XIAP levels in MM.1S cells; details: 16 h
Method: (§3) To evaluate the capability of our panel of hetero-PROTACs for E3 ligase degradation, VHL19, VHL30, CRBN, cIAP1, cIAP2, and XIAP levels were quantified by western blot analyses. […] SDS-PAGE was performed, and proteins were then transferred onto PVDF membranes. Blotted membranes were blocked with 5% milk in Tris-buffered saline/Tween20 (TBST). Primary antibodies were diluted in 5% BSA in TBST, and incubations were performed overnight at 4 °C. Secondary HRP-conjugated antibodies diluted in 5% milk were incubated for 1 h at room temperature. Detection of proteins on PVDF was carried out using the WesternBright ECL HRP substrate or the WesternBright Sirius HRP substrate (Advansta, San Jose, USA) and imaged with LAS 4000× (Fujifilm). Membranes were subjected to 10 min incubation with Restore Western Blot Stripping Buffer (Thermo Fisher Scientific, Waltham, USA), followed by TBST washes. After brief re-activation with methanol, the membranes were blocked, and further probing of proteins was carried out.
(§4) Quantification of blots was performed using ImageJ software (National Institutes of Health).

cIAP1 [3] = biological target: T2, cIAP1 (Homo sapiens, UniProt Q13490); assay: Immunoblotting (western blot) quantification of cIAP1 levels in MM.1S cells; details: 16 h
physchem = details: pH 7.4
Method: The system was calibrated by plotting the retention times of six different drugs (atenolol, metoprolol, labetalol, diltiazem, triphenylene, and permethrin) versus their literature-known log D7.4 in a calibration line (R^2 = 0.99). Subsequently, the mean retention times of the analytes were taken to calculate their log D7.4 values with the aid of the calibration line. At least two independent measurements of each analyte were performed.

cIAP2 = cIAP2 (Homo sapiens, UniProt Q13489); assay: Immunoblotting (western blot) quantification of cIAP2 levels in MM.1S cells; details: 16 h
VHL30 = VHL30 (Homo sapiens, UniProt P40337); assay: Immunoblotting (western blot) quantification of VHL30 levels in MM.1S cells
Method: as §3, §4

cIAP1 [4] = biological target: T2, cIAP1; assay: Immunoblotting of cIAP1 in HG3 wild-type and HG3 VHL-knockout cells; type: cell-based; set-up: endogenous in cells; host or cells: MM.1S; details: 1 μM, 16 h
Method: (§1) Next, cellular activities of hetero-PROTACs 2, 4, and 6 were evaluated in chronic lymphocytic leukemia cells (HG3), for which a VHL-knockout cell line was created (Figure 5). […] Thus, VHL knockout confirmed the involvement of E3 ubiquitin ligase CRL2^VHL in the induced degradation of XIAP (and, at least in part, cIAP1) by these IAP-VHL heterobifunctional PROTACs. This provides additional evidence that the degradation of IAPs relies on the formation of a hetero–ternary complex consisting of both ligases and the degraders.
(§2) For generation of lentiviral vectors, HEK293T cells were transfected with constructs along with the packaging and envelope vectors. Viral supernatants were harvested 48 h after transfection and were used to transduce cell lines. MM.1S and HG3 cells were transduced with virus containing pLKO5d.SSF.SpCas9.P2a.BSD, and cells were selected with blasticidin. Selected cells were then transduced with respective sgRNA constructs targeting VHL, cIAP1, cIAP2, XIAP, and negative control luciferase, which were cloned into pLKO5.hU6.sgRNA.dTom. Transduction success was confirmed through FACS analysis 48 h post-transduction with a minimum efficiency of 95% tomato fluorescence.

VHL19 = VHL19 (Homo sapiens, UniProt P40337); assay: Immunoblotting (western blot) quantification of VHL19 levels in MM.1S cells; details: 16 h, western blot
Method: as §3, §4

XIAP [5] = biological target: T1, XIAP; assay: Immunoblotting of XIAP in HG3 wild-type and HG3 VHL-knockout cells; type: cell-based; set-up: endogenous in cells; host or cells: MM.1S; details: 1 μM, 16 h
Method: as §1, §2

[6] = MM.1S cells, western blot, 0.1 or 1 μM

T1 sequence (P98170 whole entry): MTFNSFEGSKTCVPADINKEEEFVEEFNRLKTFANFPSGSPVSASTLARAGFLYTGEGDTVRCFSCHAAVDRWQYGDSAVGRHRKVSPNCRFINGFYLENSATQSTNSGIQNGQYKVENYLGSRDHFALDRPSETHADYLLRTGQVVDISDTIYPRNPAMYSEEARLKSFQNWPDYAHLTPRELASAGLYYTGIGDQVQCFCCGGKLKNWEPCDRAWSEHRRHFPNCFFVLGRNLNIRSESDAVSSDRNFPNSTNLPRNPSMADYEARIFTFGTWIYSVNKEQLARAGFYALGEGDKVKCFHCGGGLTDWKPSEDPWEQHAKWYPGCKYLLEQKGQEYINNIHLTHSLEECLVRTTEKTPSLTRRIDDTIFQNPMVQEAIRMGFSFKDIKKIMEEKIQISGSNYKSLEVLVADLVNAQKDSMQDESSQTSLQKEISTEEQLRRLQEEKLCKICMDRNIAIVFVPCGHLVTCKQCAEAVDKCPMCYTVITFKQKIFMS
T2 sequence (Q13490 whole entry): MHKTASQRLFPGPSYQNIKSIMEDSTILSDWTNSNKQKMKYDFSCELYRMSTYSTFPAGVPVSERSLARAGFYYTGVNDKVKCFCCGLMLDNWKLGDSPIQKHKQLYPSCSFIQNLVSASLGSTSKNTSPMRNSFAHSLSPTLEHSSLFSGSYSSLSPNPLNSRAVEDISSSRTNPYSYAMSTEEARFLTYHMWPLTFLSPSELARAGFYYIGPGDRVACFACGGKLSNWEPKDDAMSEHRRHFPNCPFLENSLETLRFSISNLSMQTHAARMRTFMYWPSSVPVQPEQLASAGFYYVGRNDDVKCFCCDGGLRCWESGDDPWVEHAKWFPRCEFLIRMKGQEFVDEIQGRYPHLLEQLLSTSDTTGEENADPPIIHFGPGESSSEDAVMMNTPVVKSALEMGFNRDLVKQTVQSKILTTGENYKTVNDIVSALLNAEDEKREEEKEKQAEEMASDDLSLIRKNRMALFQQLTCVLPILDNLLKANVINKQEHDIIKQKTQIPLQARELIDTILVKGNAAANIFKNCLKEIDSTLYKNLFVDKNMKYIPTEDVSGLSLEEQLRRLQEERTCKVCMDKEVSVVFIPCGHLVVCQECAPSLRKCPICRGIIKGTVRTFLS
Chain of VHL30 (P40337 whole entry): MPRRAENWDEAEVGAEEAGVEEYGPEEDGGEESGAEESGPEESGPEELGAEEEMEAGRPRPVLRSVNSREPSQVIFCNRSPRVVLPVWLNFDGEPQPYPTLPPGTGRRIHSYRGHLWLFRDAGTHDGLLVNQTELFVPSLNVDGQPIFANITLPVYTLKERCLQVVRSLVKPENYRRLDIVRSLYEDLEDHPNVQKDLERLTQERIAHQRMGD
Chain of cIAP2 (Q13489 whole entry): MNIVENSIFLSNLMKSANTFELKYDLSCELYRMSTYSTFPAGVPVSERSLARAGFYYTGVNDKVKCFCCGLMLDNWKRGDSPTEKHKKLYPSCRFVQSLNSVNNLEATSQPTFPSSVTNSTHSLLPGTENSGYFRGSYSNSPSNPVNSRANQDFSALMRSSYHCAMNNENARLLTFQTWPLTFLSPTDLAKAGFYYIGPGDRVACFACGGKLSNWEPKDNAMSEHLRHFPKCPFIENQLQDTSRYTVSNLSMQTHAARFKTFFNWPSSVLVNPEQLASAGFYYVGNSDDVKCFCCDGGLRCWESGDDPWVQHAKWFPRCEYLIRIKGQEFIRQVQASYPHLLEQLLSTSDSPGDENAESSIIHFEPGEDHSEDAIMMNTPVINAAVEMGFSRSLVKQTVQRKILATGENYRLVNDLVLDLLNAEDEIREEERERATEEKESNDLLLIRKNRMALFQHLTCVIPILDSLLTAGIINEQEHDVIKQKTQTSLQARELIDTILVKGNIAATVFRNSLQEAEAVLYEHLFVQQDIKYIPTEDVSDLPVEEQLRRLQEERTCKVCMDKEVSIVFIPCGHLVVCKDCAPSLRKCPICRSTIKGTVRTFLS
Chain of VHL19 (P40337 54-213): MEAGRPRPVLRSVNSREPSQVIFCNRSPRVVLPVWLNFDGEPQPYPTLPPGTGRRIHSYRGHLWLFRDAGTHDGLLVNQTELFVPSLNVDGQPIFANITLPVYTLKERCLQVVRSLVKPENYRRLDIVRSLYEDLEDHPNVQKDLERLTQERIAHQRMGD

Row | Compound | IAP degradation profile (in words) [1] | XIAP degradation (in words) (XIAP [2]; [6]) | cIAP1 degradation (in words) (cIAP1 [3]; [6]) | chromatographic logD (physchem) | cIAP2 degradation (in words) (cIAP2; [6]) | remaining activity at 0.1 µM (VHL30; MM1.S, 16 h, read-out: %remaining protein VHL30, MM.1S cells, 16 h treatment at 0.1 μM, normalized to loading control and DMSO) | VHL30 degradation (in words) (VHL30; MM.1S cells, western blot) | cIAP1 degradation in VHL+/+ and VHL–/– HG3 cells (in words) (cIAP1 [4]) | remaining activity at 0.1 µM (XIAP [2]; MM1.S, read-out: %remaining protein XIAP, MM.1S cells, 16 h treatment at 0.1 μM, normalized to loading control and DMSO) | remaining activity at 0.1 µM (cIAP1 [3]; MM1.S, read-out: %remaining protein cIAP1, MM.1S cells, 16 h treatment at 0.1 μM, normalized to loading control and DMSO) | VHL19 degradation (in words) (VHL19) | XIAP degradation in VHL+/+ and VHL–/– HG3 cells (in words) (XIAP [5]) | remaining activity at 0.1 µM (cIAP2; MM1.S, read-out: %remaining protein cIAP2, MM.1S cells, 16 h treatment at 0.1 μM, normalized to loading control and DMSO)
1 | CN[C@H](C)C(=O)N[C@H](C(=O)N1CCC[C@@H]1C(=O)N[C@@H](C(=O)NCCCCCCNC(=O)[C@H](NC(=O)[C@H]1CCCN1C(=O)[C@@H](NC(=O)[C@@H](C)NC)C1CCCCC1)C(c1ccccc1)c1ccccc1)C(c1ccccc1)c1ccccc1)C1CCCCC1 [BV6, reference compound] (I: H-[dNMeA][Chg][dP][dDip] / II: H-[dNMeA][Chg][dP][dDip]; linker I:C-II:C via Hexamethylenediamine) | potent cIAP autodegradation | failed to degrade XIAP | substantial degradation | 3.4 | substantial degradation | – | – | – | – | – | – | – | –
2 | CN[C@@H](C)C(=O)N[C@H](C(=O)N1C[C@@H](Oc2cccc(OCCCCCCCC(=O)N[C@H](C(=O)N3C[C@H](O)C[C@H]3C(=O)NCc3ccc(-c4scnc4C)cc3)C(C)(C)C)c2)C[C@H]1C(=O)N[C@@H]1CCCc2ccccc21)C1CCCCC1 [PROTAC 2, (2S,4S)-1-((S)-2-Cyclohexyl-2-((S)-2-(methylamino)propanamido)acetyl)-4-(3-((8-(((S)-1-((2S,4R)-4-hydroxy-2-((4-(4-methylthiazol-5-yl)benzyl)carbamoyl)pyrrolidin-1-yl)-3,3-dimethyl-1-oxobutan-2-yl)amino)-8-oxooctyl)oxy)phenoxy)-N-((R)-1,2,3,4-tetrahydronaphthalen-1-yl)pyrrolidine-2-carboxamide] | – | – | – | – | – | 28% | strong and dose-dependent VHL30 degradation | cIAP1 autodegradation was observed | 5% | 4% | slight hook effect for VHL19 degradation | occurred only in HG3 wild-type cells | 23%
